{"source": "patent US11413267B2", "about": "“Methods and compositions for inhibition of ATR and FANCD2 activation” (priority 2012, dated 2022)", "key": {"[1]": {"system": "GFP expressing adenovirus (Ad-GFP)", "assay": "Ad-GFP infection of HEK293A cells", "type": "cell-based", "conditions": "for Ad-GFP infection: 0.2-2 μM", "description": "To test the effects of anti-virus infection of benzopyran-4-one derivative compounds, a green fluorescent protein (GFP) expressing adenovirus to visualize adenovirus infection was used. To obtain the reporter virus, the GFP cDNA is amplified from pEGFP-N1 (Clontech, Accession: U55762.1) through a polymerase chain reaction with primers 5′-CACCATGGTGAGCAAGGGC-3′ [SEQ ID NO: 5] and 5′-[…]-3′ [SEQ ID NO: 6], and then cloned into pENTR™/D-TOP vector (Invitrogen). The GFP cDNA was transferred to adenovirus vector pAd/CMV/V5-DEST™ through an in vitro recombination method using LR Clonase® II after the sequence was confirmed. We selected the ampicillin- and […] clones to obtain the pAd-GFP. The pAd-GFP plasmid is then transfected into E1a and E1b expressing HEK293A cells to produce a crude GFP expression adenoviral stock (Ad-GFP). The adenovirus was amplified by infecting HEK293A cells. The adenoviral stock was titered and later used to infect the cells for the analysis.\nTo observe the anti-virus effect of the benzopyran-4-one derivative compounds, Ad-GFP and Lenti-GFP at a low MOI of 0.5 were then applied to infect the HEK293A cells and HEK293T cells, respectively. In the prevention group, cells were treated by compounds of Compound I-1 at 0.2, 1, and 2 μM or Compound II-1 at 0.1, 0.5, 1 μM for 30 minutes before Ad-GFP and Lenti-GFP infection. In the treatment group, cells were treated by compounds of Compound I-1 at 0.2, 1, and 2 μM or Compound II-1 at 0.1, 0.5, and 1 μM for 2 hours after Ad-GFP and Lenti-GFP infection. After a total of 6 hours of compounds and virus treatments, cells were washed with Hank's buffered salt solution and a flash culture media was replaced.\n24 hours after virus infection, the effect of the benzopyran-4-one derivative compounds on the antivirus infection was recorded by observing the GFP positive cells under an inverted fluorescence microscope. The mean fluorescence intensity by flow cytometry in each plate of cells was analyzed for quantification."}, "CHO cells": {"system": "CHO cells", "assay": "In vitro chromosome aberration test", "type": "cell-based, Chinese Hamster", "conditions": "for Average aberrant metaphases (%) / Chromatid break (No.) / Chromatid deletion / Complex rerrangement / Dicentric / Polyploid / Pulverized cell / Quadriradial / Ring / Triradial: Chinese hamster, 20 h", "experimental": "To test this hypothesis, we investigated the cytogenetic effect of Protoapigenone (I-1) on CHO cells (FIG. 1).\nIn brief, 5×10^5 Chinese Hamster Ovary (CHO) cells were seeded in 60-mm dishes 1 d before the experiment. Protoapigenone (I-1)-induced structural chromosomal changes after 20 h were compared with that of the cells cultured in 2 μM mitomycin C. At 18 h after Protoapigenone (I-1), 0.1 μg/mL colchicine was added for 2 h, and metaphase cells were collected by shaking them off the dishes. Mitotic cells were treated with 0.5% KCl for 10 min and fixed with a 3:1 mixture of methanol: glacial acetic acid. The cells were then spread on slides for chromosome staining with 5% Giemsa solution. We then analyzed the chromosome structure of 200 well-spread metaphase cells (100 metaphase cells/experiment) under a 100× oil immersion objective."}, "[2]": {"system": "DDR signaling (Chk2 Thr68, Chk1 Ser345 phosphorylation)", "assay": "Immunoblot of DDR signaling after compound alone (no DNA damage)", "type": "cell-based, human", "experimental": "Since mitomycin C can induce DDR in many cancers, we investigated what kind of DDR signaling was activated by Protoapigenone (I-1). […] We repeated the benzopyran-4-one derivatives experiment on lung and breast carcinoma cell lines A549 and MDA-MB-231 cells, respectively, and obtained similar results. Consistently, no marked changes in Chk1 and Chk2 phosphorylation signaling were detected even at high doses of either drug for as long as 8 h after drug treatment (FIGS. 3(a) and 3(b)).\nCell lysate preparations, gel electrophoresis, and immunoblotting were performed as previously described (23). The binding of primary antibodies were detected by horseradish peroxidase-coupled secondary antibodies (Jackson ImmunoResearch) followed by enhanced chemiluminescence (ECL) (Millipore). The images of non-saturated bands were captured using a luminescent image analyzer (LAS-4000 mini; Fujifilm). The antibodies used in this study are listed in supplementary materials."}, "FANCD2": {"system": "FANCD2", "assay": "Immunoblot of FANCD2 monoubiquitination", "type": "cell-based, human", "conditions": "cisplatin-treated cells, same doses as Protoapigenone (I-1)", "description": "Understanding the mechanism by which the benzopyran-4-one derivatives compounds cause chromosomal breakages (FIG. 1) and other abnormalities might aid in identifying their targets. We hypothesized that genes with functions associated with DNA damage checkpoints and/or DNA repair might be targeted by benzopyran-4-one derivatives. To test this hypothesis, we assessed the effects of benzopyran-4-one derivatives on DDR induced by H2O2. […] In response to DNA double-strand breaks (DSBs), FANCD2 is known to be monoubiquitinated on K561 (FANCD2-Ub) in an ATR-dependent manner to stimulate repair (Andreassen P R, et al. Genes Dev 2004). […] Collectively, these findings indicate that benzopyran-4-one derivatives can modify ATR signaling after various types of DNA damage.\nInhibition of the checkpoint and repair mechanisms leads to chemosensitization in cancers. […] We further treated individual cells with cisplatin in combination with several varying doses of benzopyran-4-one derivatives, and counted survival colonies to determine their ability to survive after cisplatin-induced damage. […]\nCell lysate preparations, gel electrophoresis, and immunoblotting were performed as previously described (23). The binding of primary antibodies were detected by horseradish peroxidase-coupled secondary antibodies (Jackson ImmunoResearch) followed by enhanced chemiluminescence (ECL) (Millipore). […]"}, "[3]": {"conditions": "post-treatment 2 hours after infection, 0.1-1 μM"}, "[4]": {"conditions": "pre-treatment 30 minutes before infection, 0.1-1 μM, MOI 0.5, 24 hours"}}, "note": "Marks after values point to notes of the source that are not given here.", "data": [{"smiles": "O=C1C=CC(O)(c2cc(=O)c3c(O)cc(O)cc3o2)C=C1", "note": "[Compound I-1, Protoapigenone]", "values": [{"measurement": "Ad-GFP infection", "setting": "[1]; post-treatment", "result": "did not inhibit the Ad-GFP infection"}, {"measurement": "Ad-GFP infection", "setting": "[1]; pre-treatment", "result": "did not prevent the Ad-GFP infection"}, {"measurement": "Chromosomal structural changes (breakages, radials, polyploidy), in words", "setting": "CHO cells", "result": "dose-dependent increases"}, {"measurement": "Obtaining complete mitotic chromosome", "setting": "CHO cells", "result": "complete mitotic chromosome could not be obtained"}, {"measurement": "Average aberrant metaphases (%)", "setting": "CHO cells; 2.17 μM", "result": "6.5 * %"}, {"measurement": "Chromatid break (No.)", "setting": "CHO cells; 2.17 μM", "result": 2, "unit": "No."}, {"measurement": "Chromatid deletion", "setting": "CHO cells; 2.17 μM", "result": 0, "unit": "No."}, {"measurement": "Complex rerrangement", "setting": "CHO cells; 2.17 μM", "result": 0, "unit": "No."}, {"measurement": "Dicentric", "setting": "CHO cells; 2.17 μM", "result": 0, "unit": "No."}, {"measurement": "Polyploid", "setting": "CHO cells; 2.17 μM", "result": 3, "unit": "No."}, {"measurement": "Pulverized cell", "setting": "CHO cells; 2.17 μM", "result": 0, "unit": "No."}, {"measurement": "Quadriradial", "setting": "CHO cells; 2.17 μM", "result": 3, "unit": "No."}, {"measurement": "Ring", "setting": "CHO cells; 2.17 μM", "result": 1, "unit": "No."}, {"measurement": "Triradial", "setting": "CHO cells; 2.17 μM", "result": 4, "unit": "No."}, {"measurement": "Average aberrant metaphases (%)", "setting": "CHO cells; 4.35 μM", "result": "14.0 * %"}, {"measurement": "Chromatid break (No.)", "setting": "CHO cells; 4.35 μM", "result": 1, "unit": "No."}, {"measurement": "Chromatid deletion", "setting": "CHO cells; 4.35 μM", "result": 1, "unit": "No."}, {"measurement": "Complex rerrangement", "setting": "CHO cells; 4.35 μM", "result": 0, "unit": "No."}, {"measurement": "Dicentric", "setting": "CHO cells; 4.35 μM", "result": 0, "unit": "No."}, {"measurement": "Polyploid", "setting": "CHO cells; 4.35 μM", "result": 1, "unit": "No."}, {"measurement": "Pulverized cell", "setting": "CHO cells; 4.35 μM", "result": 1, "unit": "No."}, {"measurement": "Quadriradial", "setting": "CHO cells; 4.35 μM", "result": 9, "unit": "No."}, {"measurement": "Ring", "setting": "CHO cells; 4.35 μM", "result": 2, "unit": "No."}, {"measurement": "Triradial", "setting": "CHO cells; 4.35 μM", "result": 13, "unit": "No."}, {"measurement": "p53 protein accumulation", "setting": "[2]; HEK293T cells", "result": "slight accumulation of the p53 protein"}, {"measurement": "Change of putative DDR signaling (phosphorylation of Chk2 Thr68 and Chk1 Ser345)", "setting": "[2]; HEK293T cells, high doses (10 μM, FIG. 2)", "result": "did not induce noticeable changes"}, {"measurement": "MAPKAPK2 phosphorylation (p38 MAPK target)", "setting": "[2]; HEK293T cells, time after exposure", "result": "phosphorylated starting as early as 2 h"}]}, {"smiles": "O=C1C=CC(O)(c2cc(=O)c3c(ccc4ccccc43)o2)C=C1", "note": "[Compound II-1, 3-(1-hydroxy-4-oxo-cyclohexa-2,5-dienyl)-1H-benzo[f]chromen-1-one]", "values": [{"measurement": "MFI of GFP protein", "setting": "[1]; [3]", "result": "decreased"}, {"measurement": "Number of GFP cells", "setting": "[1]; [3]", "result": "decreased"}, {"measurement": "Mean fluorescence intensity (MFI) of GFP protein", "setting": "[1]; [4]", "result": "decreased"}, {"measurement": "Number of GFP cells", "setting": "[1]; [4]", "result": "decreased"}, {"measurement": "inhibition at 1 µM", "setting": "[1]; unidentified adenovirus, HEK293-A, read-out: Virus inhibition effect", "result": "50 to 99", "unit": "%"}, {"measurement": "FANCD2 monoubiquitination and protein stability", "setting": "FANCD2", "result": "not only inhibits monoubiquitination of FANCD2 but also affects FANCD2 protein stability"}, {"measurement": "Chk2 activation by compound itself", "setting": "[2]; high dose, no DNA damage (FIGS. 3(a), 3(b))", "result": "slightly induces"}]}]}
